Source: patent US8242275B2, “Bicyclic pyrazole compounds as antibacterial agents” (Janssen Pharmaceutica NV, priority 2005, dated 2012)
In brackets after ≈: the same amount, converted by molar mass. Read-outs that look alike come from different tables or passages of the source.

Columns and labels:
[1] = tested on: E. coli KL-16 (GSC strain 4245); assay: In vitro antibacterial activity (MIC assay), broth microdilution; assay type: cell-based; settings: Escherichia coli
Method in brief: (§1)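 Broth microdilution per NCCLS M7-A5: 11-point 2-fold compound dilutions from DMSO stocks, inoculum about 5×10^5 CFU/mL, incubation 35° C for 16–24 h. MIC scored visually against no-compound growth controls, in μg/mL.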

[2] = tested on: S. aureus ATCC13709; assay: as above; assay type: cell-based; settings: Staphylococcus aureus, ATCC13709; read-out: S. aureus ATCC13709 MIC
Method in brief: as §1

[3] = tested on: S. pneumoniae ATCC49619; assay: as above; assay type: cell-based; settings: Streptococcus pneumoniae, ATCC49619; read-out: S. pneumoniae ATCC49619 MIC
Method in brief: as §1

[4] = molecular target: T1, E. coli DNA gyrase (Escherichia coli, UniProt P0AES4+P0AES6); assay: DNA gyrase inhibition assay (supercoiling); assay type: biochemical
T1 construct: purchased John Innes Enterprises Ltd. (John Innes Centre, UK)
T1 sequence (P0AES4 whole entry, one chain of several): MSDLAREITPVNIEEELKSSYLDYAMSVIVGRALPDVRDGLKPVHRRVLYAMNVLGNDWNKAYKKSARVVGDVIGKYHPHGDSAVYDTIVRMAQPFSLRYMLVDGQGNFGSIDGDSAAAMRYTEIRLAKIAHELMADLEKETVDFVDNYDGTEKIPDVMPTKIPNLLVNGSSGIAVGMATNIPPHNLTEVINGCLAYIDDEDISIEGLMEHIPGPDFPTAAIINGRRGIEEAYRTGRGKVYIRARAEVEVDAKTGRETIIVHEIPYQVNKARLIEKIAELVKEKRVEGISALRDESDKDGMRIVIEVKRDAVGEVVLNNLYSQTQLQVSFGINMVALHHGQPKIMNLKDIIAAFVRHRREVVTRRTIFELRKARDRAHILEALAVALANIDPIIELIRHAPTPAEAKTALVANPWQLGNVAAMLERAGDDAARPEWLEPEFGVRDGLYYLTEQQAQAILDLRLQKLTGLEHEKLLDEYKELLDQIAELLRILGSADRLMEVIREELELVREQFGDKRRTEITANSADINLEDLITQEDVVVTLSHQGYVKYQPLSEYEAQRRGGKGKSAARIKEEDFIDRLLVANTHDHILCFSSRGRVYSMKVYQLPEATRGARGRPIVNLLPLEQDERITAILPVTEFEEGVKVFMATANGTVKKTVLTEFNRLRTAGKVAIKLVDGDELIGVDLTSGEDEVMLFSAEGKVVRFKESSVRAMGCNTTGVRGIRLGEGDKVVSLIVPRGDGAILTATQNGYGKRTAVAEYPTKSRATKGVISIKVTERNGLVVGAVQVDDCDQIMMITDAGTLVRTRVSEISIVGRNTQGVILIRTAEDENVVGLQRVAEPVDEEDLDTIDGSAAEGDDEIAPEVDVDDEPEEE
Method in brief: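 Relaxed pBR322 (250 ng) was supercoiled by 0.2 unit gyrase in Tris-HCl pH 7.5, KCl, MgCl2, DTT, spermidine, 1 mM ATP, glycerol, albumin, 0.5% DMSO final, 30 min at 37° C. Products were resolved on 1.0% agarose gels with ethidium bromide staining.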

[5] = molecular target: T2, E. coli topoisomerase IV (Escherichia coli, UniProt P0AFI2+P20083); assay: Topoisomerase IV inhibition assay (relaxation); assay type: biochemical; settings: E. coli topoisomerase IV relaxation, visual inspection of gels; read-out: Topoisomerase IV IC50 (converted)
T2 construct: purchased John Innes Enterprises Ltd. (John Innes Centre, UK)
T2 sequence (P0AFI2 whole entry): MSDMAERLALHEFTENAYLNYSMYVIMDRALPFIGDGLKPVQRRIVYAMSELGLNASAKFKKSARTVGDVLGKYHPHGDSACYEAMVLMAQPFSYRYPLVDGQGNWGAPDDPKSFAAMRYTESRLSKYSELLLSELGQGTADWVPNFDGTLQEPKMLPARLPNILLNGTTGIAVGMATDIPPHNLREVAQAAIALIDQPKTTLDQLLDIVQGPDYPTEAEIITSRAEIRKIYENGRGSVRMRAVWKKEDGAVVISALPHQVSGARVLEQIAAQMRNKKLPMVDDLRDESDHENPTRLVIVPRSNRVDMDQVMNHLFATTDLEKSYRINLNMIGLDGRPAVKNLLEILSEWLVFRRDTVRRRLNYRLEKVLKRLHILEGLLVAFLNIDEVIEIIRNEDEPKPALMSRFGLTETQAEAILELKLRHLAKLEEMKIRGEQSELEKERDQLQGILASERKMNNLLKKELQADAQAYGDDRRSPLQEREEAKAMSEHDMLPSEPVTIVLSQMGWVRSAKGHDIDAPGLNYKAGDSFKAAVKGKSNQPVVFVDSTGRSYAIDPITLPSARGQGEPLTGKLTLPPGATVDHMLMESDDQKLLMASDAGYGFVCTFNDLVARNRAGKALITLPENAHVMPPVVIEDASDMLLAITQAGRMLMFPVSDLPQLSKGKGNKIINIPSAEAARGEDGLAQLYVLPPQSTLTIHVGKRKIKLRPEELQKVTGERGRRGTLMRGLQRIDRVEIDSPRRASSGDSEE
T2 sequence (P20083 whole entry): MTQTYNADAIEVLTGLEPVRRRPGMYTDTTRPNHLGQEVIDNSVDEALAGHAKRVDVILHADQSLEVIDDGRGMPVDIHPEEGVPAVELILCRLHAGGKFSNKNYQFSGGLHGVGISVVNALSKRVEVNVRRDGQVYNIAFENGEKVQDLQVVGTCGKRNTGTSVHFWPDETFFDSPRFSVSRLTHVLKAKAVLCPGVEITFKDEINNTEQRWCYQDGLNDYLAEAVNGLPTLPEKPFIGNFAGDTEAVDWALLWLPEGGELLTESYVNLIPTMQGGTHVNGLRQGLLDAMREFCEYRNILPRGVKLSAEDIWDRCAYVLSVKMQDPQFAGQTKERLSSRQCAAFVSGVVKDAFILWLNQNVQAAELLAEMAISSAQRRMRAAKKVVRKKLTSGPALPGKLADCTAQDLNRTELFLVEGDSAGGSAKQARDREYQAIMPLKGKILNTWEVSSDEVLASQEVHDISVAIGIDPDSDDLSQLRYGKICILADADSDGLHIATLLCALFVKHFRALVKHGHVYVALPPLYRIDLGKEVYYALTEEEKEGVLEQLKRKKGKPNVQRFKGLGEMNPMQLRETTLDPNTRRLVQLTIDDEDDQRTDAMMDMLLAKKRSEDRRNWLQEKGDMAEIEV
Method: Inhibition of the relaxation activity of E. coli topoisomerase IV was determined using enzyme, buffers and substrates received from John Innes Enterprises Ltd. (John Innes Centre, UK). The reactions were performed according to the manufacturer's directions, with the following modifications.
DNA relaxation reactions were carried out in a total reaction volume of 20 μL, containing 300 ng of supercoiled pBR322, 40 mM HEPES-KOH (pH 7.6), 100 mM potassium glutamate, 10 mM Mg(OAc)2, 10 mM DTT, 4 μg/mL tRNA, 2 mM ATP, and 50 μg/mL BSA. Compounds, diluted in 10% DMSO, were added to the reaction mixture to reach a final concentration of 0.5% DMSO. Enzyme was diluted to 0.45 unit/μL in a solution of 40 mM HEPES-KOH (pH 7.6), 150 mM potassium glutamate, 1 mM DTT, 1 mM EDTA, and 40% glycerol. Diluted enzyme (0.9 unit) was added to each reaction.
The reactions were incubated at 37° C. for 45 min. The reactions were then cooled to 0° C. followed by addition of 3 μL of 40% glycerol, 100 mM Tris-HCl (pH 7.5), 50 mM EDTA, 0.5% SDS and 0.1% bromophenol blue. Samples were separated on 1.0% agarose gels. Gels were stained with Ethidium bromide and photographed with a Stratagene Eagle Eye II.

[6] = E. coli DNA gyrase supercoiling, visual inspection of gels, read-out: DNA Gyrase IC50 (converted)

SMILES | MIC [1] | MIC [2] | MIC [3] | IC50 [4, 6] | IC50 [5] | IC50 [4]
COc1ccc2nccc(-n3cc4c(n3)CCC(NC(=O)c3ccc5c(c3)OCCO5)C4)c2n1 (stereo not drawn) [Example 1, 2,3-Dihydro-benzo[1,4]dioxine-6-carboxylic acid [2-(6-methoxy-[1,5]naphthyridin-4-yl)-4,5,6,7-tetrahydro-2H-indazol-5-yl]-amide] | > 128 µg/mL | 0.5 µg/mL (≈ 1.09 µM) | 8 µg/mL (≈ 17.5 µM) | > 69900 nM | > 2190 nM | 
COc1ccc2nccc(-n3cc4c(n3)CCC(NC(=O)c3cc5ccccc5s3)C4)c2c1 (stereo not drawn) [Example 23, Benzo[b]thiophene-2-carboxylic acid [2-(6-methoxy-quinolin-4-yl)-4,5,6,7-tetrahydro-2H-indazol-5-yl]-amide] | > 128 µg/mL | < 0.125 µg/mL | 2 µg/mL (≈ 4.4 µM) |  | > 2200 nM | 
O=C1CSc2cc(F)c(C(=O)NC3CCc4nn(-c5cccc6cccnc56)cc4C3)cc2N1 (stereo not drawn) [Example 32, 7-Fluoro-3-oxo-3,4-dihydro-2H-benzo[1,4]thiazine-6-carboxylic acid (2-quinolin-8-yl-4,5,6,7-tetrahydro-2H-indazol-5-yl)-amide] | 16 µg/mL (≈ 33.8 µM) | 0.25 µg/mL (≈ 0.528 µM) | 4 µg/mL (≈ 8.45 µM) |  | 264 nM | 
O=C1CSc2ccc(C(=O)NC3CCc4nn(-c5cccc6ccccc56)cc4C3)cc2N1 (stereo not drawn) [Example 34, 3-Oxo-3,4-dihydro-2H-benzo[1,4]thiazine-6-carboxylic acid (2-naphthalen-1-yl-4,5,6,7-tetrahydro-2H-indazol-5-yl)-amide] | > 128 µg/mL | 0.5 µg/mL (≈ 1.1 µM) | 8 µg/mL (≈ 17.6 µM) | 4400 nM | 275 nM | 
COc1ccc2nccc(-n3cc4c(n3)CCC(NCc3ccc5c(c3)NCCS5)C4)c2n1 (stereo not drawn) [Example 36, (3,4-Dihydro-2H-benzo[1,4]thiazin-6-ylmethyl)-[2-(6-methoxy-[1,5]naphthyridin-4-yl)-4,5,6,7-tetrahydro-2H-indazol-5-yl]-amine] | 8 µg/mL (≈ 17.4 µM) | < 0.125 µg/mL | 0.25 µg/mL (≈ 0.545 µM) | 1090 nM | 65.4 nM | 
O=C1CSc2ccc(C(=O)NC3CCc4nn(-c5ccnc6cc(Cl)ccc56)cc4C3)cc2N1 (stereo not drawn) [Example 81, 3-Oxo-3,4-dihydro-2H-benzo[1,4]thiazine-6-carboxylic acid [2-(7-chloro-quinolin-4-yl)-4,5,6,7-tetrahydro-2H-indazol-5-yl]-amide] | > 128 µg/mL | 2 µg/mL (≈ 4.08 µM) | > 128 µg/mL |  | > 1020 nM | 
COc1ccc2nccc(-n3cc4c(n3)CCC(NC(=O)/C=C/c3ccc(F)c(F)c3)C4)c2n1 (stereo not drawn) [Example 93, 3-(3,4-Difluoro-phenyl)-N-[2-(6-methoxy-[1,5]naphthyridin-4-yl)-4,5,6,7-tetrahydro-2H-indazol-5-yl]-acrylamide] | > 128 µg/mL | 0.25 µg/mL (≈ 0.542 µM) | 16 µg/mL (≈ 34.7 µM) | > 34700 nM |  | 
COc1ccc2nccc(-n3cc4c(n3)CCC(NC(=O)/C=C/c3ccccn3)C4)c2n1 (stereo not drawn) [Example 95, N-[2-(6-Methoxy-[1,5]naphthyridin-4-yl)-4,5,6,7-tetrahydro-2H-indazol-5-yl]-3-pyridin-2-yl-acrylamide] | > 128 µg/mL | 2 µg/mL (≈ 4.69 µM) | 8 µg/mL (≈ 18.8 µM) | > 37500 nM |  | 
O=C1CSc2ccc(C(=O)NC3CCc4c(cnn4-c4cc(C(F)(F)F)nc5c(C(F)(F)F)cccc45)C3)cc2N1 (stereo not drawn) [Example 96, 3-Oxo-3,4-dihydro-2H-benzo[1,4]thiazine-6-carboxylic acid [1-(2,8-bis-trifluoromethyl-quinolin-4-yl)-4,5,6,7-tetrahydro-1H-indazol-5-yl]-amide] | 64 µg/mL (≈ 108 µM) | 8 µg/mL (≈ 13.5 µM) | 32 µg/mL (≈ 54.1 µM) | > 6760 nM |  | 
O=C1CSc2ccc(C(=O)NC3CCc4c(cnn4-c4cc(C(F)(F)F)nc5ccccc45)C3)cc2N1 (stereo not drawn) [Example 97, 3-Oxo-3,4-dihydro-2H-benzo[1,4]thiazine-6-carboxylic acid [1-(2-trifluoromethyl-quinolin-4-yl)-4,5,6,7-tetrahydro-1H-indazol-5-yl]-amide] | > 128 µg/mL | > 128 µg/mL | > 128 µg/mL | > 30600 nM |  | 
COc1ccc2nccc(-n3cc4c(n3)CCC(NCc3cc(F)c5c(c3)OCCO5)C4)c2c1 (stereo not drawn) [Example 100, (8-Fluoro-2,3-dihydro-benzo[1,4]dioxin-6-ylmethyl)-[2-(6-methoxy-quinolin-4-yl)-4,5,6,7-tetrahydro-2H-indazol-5-yl]-amine] | 16 µg/mL (≈ 34.7 µM) | 0.25 µg/mL (≈ 0.543 µM) | 0.5 µg/mL (≈ 1.09 µM) | 1090 nM |  | 
COc1ccc2nccc(-n3cc4c(n3)CCC(NCc3cc(F)c5c(c3)OCCO5)C4)c2n1 (stereo not drawn) [Example 101, (8-Fluoro-2,3-dihydro-benzo[1,4]dioxin-6-ylmethyl)-[2-(6-methoxy-[1,5]naphthyridin-4-yl)-4,5,6,7-tetrahydro-2H-indazol-5-yl]-amine] | 4 µg/mL (≈ 8.67 µM) | 0.125 µg/mL (≈ 0.271 µM) | 1 µg/mL (≈ 2.17 µM) | 542 nM |  | 
COc1ccc2nccc(-n3cc4c(n3)CCC(NCc3cc5c(cc3Cl)OCCO5)C4)c2n1 (stereo not drawn) [Example 104, (7-Chloro-2,3-dihydro-benzo[1,4]dioxin-6-ylmethyl)-[2-(6-methoxy-[1,5]naphthyridin-4-yl)-4,5,6,7-tetrahydro-2H-indazol-5-yl]-amine] | 8 µg/mL (≈ 16.7 µM) | 0.125 µg/mL (≈ 0.262 µM) | 1 µg/mL (≈ 2.09 µM) | 1050 nM |  | 
COc1ccc2nccc(-n3cc4c(n3)CCC(NCc3cc5c(cc3Cl)OCO5)C4)c2n1 (stereo not drawn) [Example 105, N-((6-chlorobenzo[d][1,3]dioxol-5-yl)methyl)-2-(6-methoxy-1,5-naphthyridin-4-yl)-4,5,6,7-tetrahydro-2H-indazol-5-amine] | > 128 µg/mL | 0.5 µg/mL (≈ 1.08 µM) | 4 µg/mL (≈ 8.62 µM) | 4310 nM |  | 
COc1ccc2nccc(-n3cc4c(n3)CCC(NCc3cc5c(cc3F)SCCN5)C4)c2c1 (stereo not drawn) [Example 106] | 8 µg/mL (≈ 16.8 µM) | 0.5 µg/mL (≈ 1.05 µM) | 1 µg/mL (≈ 2.1 µM) |  |  | 4210 nM
COc1ccc2nccc(-n3cc4c(n3)CCC(NC(=O)c3ccc(C)c([N+](=O)[O-])c3)C4)c2c1 (stereo not drawn) [Example 111, N-[2-(6-Methoxy-quinolin-4-yl)-4,5,6,7-tetrahydro-2H-indazol-5-yl]-4-methyl-3-nitro-benzamide] | > 128 µg/mL | 0.25 µg/mL (≈ 0.546 µM) | 4 µg/mL (≈ 8.74 µM) | > 35000 nM |  | 
COc1ccc2nccc(-n3cc4c(n3)CCC(NC(=O)c3cc5c(cc3C(F)(F)F)SCC(=O)N5)C4)c2n1 (stereo not drawn) [Example 112, 3-Oxo-7-trifluoromethyl-3,4-dihydro-2H-benzo[1,4]thiazine-6-carboxylic acid [2-(6-methoxy-[1,5]naphthyridin-4-yl)-4,5,6,7-tetrahydro-2H-indazol-5-yl]-amide] | 4 µg/mL (≈ 7.21 µM) | 0.125 µg/mL (≈ 0.225 µM) | 8 µg/mL (≈ 14.4 µM) | 451 nM |  | 
COc1ccc2nccc(-n3cc4c(n3)CCC(NC(=O)c3ccc5c(c3)NC(=O)CO5)C4)c2c1 (stereo not drawn) [Example 116, 3-Oxo-3,4-dihydro-2H-benzo[1,4]oxazine-6-carboxylic acid [2-(6-methoxy-quinolin-4-yl)-4,5,6,7-tetrahydro-2H-indazol-5-yl]-amide] | 2 µg/mL (≈ 4.26 µM) | 0.125 µg/mL (≈ 0.266 µM) | 4 µg/mL (≈ 8.52 µM) | 532 nM |  | 
COc1ccc2nccc(-n3cc4c(n3)CCC(NC(=O)c3ccc([N+](=O)[O-])cc3F)C4)c2c1 (stereo not drawn) [Example 118, 2-Fluoro-N-[2-(6-methoxy-quinolin-4-yl)-4,5,6,7-tetrahydro-2H-indazol-5-yl]-4-nitro-benzamide] | > 128 µg/mL | 4 µg/mL (≈ 8.67 µM) | > 128 µg/mL | > 34700 nM |  | 
COc1ccc2nccc(-n3cc4c(n3)CCC(NC(=O)/C=C/c3ccc(F)cc3F)C4)c2n1 (stereo not drawn) [Example 120, 3-(2,4-Difluoro-phenyl)-N-[2-(6-methoxy-[1,5]naphthyridin-4-yl)-4,5,6,7-tetrahydro-2H-indazol-5-yl]-acrylamide] | > 128 µg/mL | 0.125 µg/mL (≈ 0.271 µM) | 4 µg/mL (≈ 8.67 µM) | 4330 nM |  | 
O=C1CSc2ccc(CNC3CCc4c(cnn4-c4cc(C(F)(F)F)nc5ccccc45)C3)cc2N1 (stereo not drawn) [Example 139, 6-{[1-(2-Trifluoromethyl-quinolin-4-yl)-4,5,6,7-tetrahydro-1H-indazol-5-ylamino]-methyl}-4H-benzo[1,4]thiazin-3-one] | > 128 µg/mL | 8 µg/mL (≈ 15.7 µM) | 32 µg/mL (≈ 62.8 µM) | > 31400 nM |  | 
